Results as given in PMC10779433, “Bidirectional Allosteric Coupling between PIP2 Binding and the Pore of the Oncochannel TRPV6” (International Journal of Molecular Sciences, 2024).
Like-named read-outs stand apart in the source and are kept apart here. Residues, ends and D or L forms follow the SMILES beside them. *: point of attachment. Palmitoyl = CCCCCCCCCCCCCCCC(=O)*

What was measured:
[1] = system: TRPV6 R470A; assay: NFAT screen, TRPV6 R470A; assay type: cell-based, human; conditions: HEK293 cells; 5 μM cis-22a, 2 h, vs DMSO
Procedure: (§1) N-terminally TagRFP-labeled human TRPV6 (725 aa) was kindly provided by R. Bhardwaj and M. Hediger (University of Bern, Bern, Switzerland). This variant is translated from the first ATG codon and thus deviates from the non-ATG-initiated protein which is expressed in vivo (accession number NM_018646.6) by lacking 40 amino acids of the very N-terminus. For N-terminal labeling with EYFP, TRPV6 was cloned into pEYFP-C1 (Clontech) via EcoRI and SacII restriction sites. […]
(§2) After incubation, cover slips were carefully rinsed with phenol red-free DMEM supplemented with the compound and dosage corresponding to the previous incubation, which was then also present during imaging. […] Subcellular NFAT localization of TRPV6 expressing cells was again monitored on an Axiovert 135 inverted microscope (Zeiss, Oberkochen, Germany), as described in more detail before. […] Images were analyzed using Matlab2018a, differentiating between three cell populations based on the ratio of CFP emission intensity originating from the nucleus and the cytosol, similar to Schober et al. (2019).

[2] = system: TRPV6 R492Q; assay: NFAT screen, TRPV6 R492Q; assay type: cell-based, human; conditions: HEK293 cells; 5 μM cis-22a, 2 h, vs DMSO
Procedure: as §1, §2

[3] = system: TRPV6 G488R; assay: NFAT screen, TRPV6 G488R; assay type: cell-based, human; conditions: HEK293 cells; 5 μM cis-22a, 2 h, vs DMSO
Procedure: as §1, §2

[4] = system: TRPV6 G579A; assay: NFAT screen, TRPV6 G579A; assay type: cell-based, human; conditions: HEK293 cells; 5 μM cis-22a, 2 h; homogeneous localization preferred already without cis-22a
Procedure: as §1, §2

[5] = system: TRPV6 K484A; conditions: HEK293 cells, ref [62], cited from earlier work
Description: (§3) Thereby, some mutants which were investigated in our previous publications are shown again to simplify comparison with other treatments.

[6] = system: TRPV6 R470A; conditions: HEK293 cells, ref [47], cited from earlier work
Description: as §3

[7] = system: TRPV6 W583F; parameters: method as in PMID 33246965; conditions: ref [47], cited from earlier work
[8] = system: TRPV6 D580K; assay: Whole-cell patch clamp, TRPV6 D580K; assay type: cell-based, human; conditions: HEK293 cells, 10 μM pal-PIP2 peptide, Figure 5C (substitution reduces the inhibition)
Description: (§4) N-terminally TagRFP-labeled human TRPV6 (725 aa) was kindly provided by R. Bhardwaj and M. Hediger (University of Bern, Bern, Switzerland). This variant is translated from the first ATG codon and thus deviates from the non-ATG-initiated protein which is expressed in vivo (accession number NM_018646.6) by lacking 40 amino acids of the very N-terminus. For N-terminal labeling with EYFP, TRPV6 was cloned into pEYFP-C1 (Clontech) via EcoRI and SacII restriction sites. Mutations (F468A, R470A, F472A, K484A/Q, G488R, R492A/Q, I575A, G579A, D580A/K, H582A, W583A/F, H587A, R589A, W593A, R632A/Q, R470A, W583F) were introduced using the QuickChange XL site-directed mutagenesis kit (Stratagene, San Diego, CA, USA) and Pfu DNA Polymerase (Promega, Madison, WI, USA). pTagRFP-hTRPV6 I575A was kindly provided by the lab of M. Hediger (University of Bern, Bern, Switzerland). Forward and reverse primers for site-directed mutagenesis were synthesized by Eurofins genomics GmbH (Wien, Vienna, Austria). Intactness of the constructs in terms of sequence was confirmed by sequencing (Microsynth Austria GmbH, Wien, Vienna, Austria; Eurofins genomics GmbH, Wien, Vienna, Austria). […]
(§5) Electrophysiological experiments were performed at 20 °C to 24 °C in whole-cell recording configurations of the patch clamp technique. […] The liquid junction potential was determined as 12 mV; the voltages were not adjusted. […]

[9] = system: TRPV6 R470A W583F; assay: Whole-cell patch clamp, TRPV6 R470A W583F; assay type: cell-based, human; conditions: HEK293 cells; 10 μM pal-PIP2 peptide; Figure 6A; compared with W583F
Description: as §4, §5

Structure (SMILES) | reduction of nuclear NFAT localization [1] | reduction of nuclear NFAT localization [2] | reduction of nuclear NFAT localization [3] | change of nuclear NFAT localization [4] | current inhibition vs TRPV6 WT ([5]; 0.1 μM cis-22a) | current inhibition vs TRPV6 WT ([5]; 10 μM cis-22a, after 0.1 μM) | current inhibition vs TRPV6 WT ([6]; 0.1 μM cis-22a) | current inhibition vs TRPV6 WT ([6]; 10 μM cis-22a, after 0.1 μM) | response to cis-22a vs TRPV6 WT ([7]; HEK293 cells, 0.1 μM and 10 μM cis-22a, Figure 5B) | IC50 ([7]; TRPV6 W583F) [µM] | inhibitory effect of pal-PIP2 peptide vs WT [8] | resistance to inhibition by pal-PIP2 peptide [9]
Cc1cccc(C2CCC(N3CCN(c4cccnc4)CC3)CC2)c1.O=C(O)C(F)(F)F (stereo not drawn) [cis-22a] | failed to significantly reduce NFAT nuclear localization | failed to significantly reduce NFAT nuclear localization | impeded cis-22a-based reductions in nuclear NFAT localization | further significant reduction in the proportion of cells showing nucleus-resident NFAT | significantly reduced | significantly reduced inhibition | significantly reduced | significantly reduced inhibition | significantly reduced response | ~6.19 |  | 
CCCCCCCCCCCCCCCC(=O)N[C@@H](Cc1c[nH]cn1)C(=O)N[C@@H](CCCNC(=N)N)C(=O)N[C@@H](CCC(N)=O)C(=O)N[C@@H](CCCCN)C(=O)N[C@@H](Cc1c[nH]cn1)C(=O)N[C@@H](Cc1ccccc1)C(=O)N[C@@H](CCC(=O)O)C(=O)N[C@@H](CCCCN)C(=O)N[C@@H](CCCNC(=N)N)C(=O)N[C@@H](CCCNC(=N)N)C(N)=O [pal-PIP2 peptide] (Palmitoyl-HRQKHFEKRR-NH2) |  |  |  |  |  |  |  |  |  |  | interfered with the inhibitory effect of the pal-PIP2 peptide | regained significant resistance to inhibition
